Experimental data taken from patent publication US20220348565A1, “PHARMACEUTICAL COMPOUNDS” (SENTINEL ONCOLOGY LIMITED, priority 2019, published 2022).

Experiments:
HCT116 xenograft tumours = experiment: HCT116 subcutaneous xenograft model; assay type: in vivo, Male athymic nude mice; details: oral 100 mg/kg on days 1, 8 and 15; day 20
Description: Male athymic nude mice bearing HCT116 xenograft tumours were give an oral dose of 100 mg/kg atropisomer A-2 on days 1, 8 and 15 and the tumour volumes were measured over 3 weeks. Tumour volumes in a control group of tumour-bearing mice, who had received vehicle only at the same time points were also measured.

[1] = biological target: T1, panel of ninety-seven kinases (Homo sapiens, UniProt P04049); experiment: DiscoverX KinomeScreen kinase selectivity competition binding assay; details: RAF1; read-out: % Ctrl @ 3 μM
T1 construct: purchased DiscoverX; host or cells: T7 phage in E. coli (BL21-derived) for most kinases; HEK-293 for the rest
Description: (§1) Atropisomer A-2 has been tested for off-target activity against a panel of ninety-seven kinases distributed across the kinome at a concentration of 3 μM using the DiscoverX KinomeScreen assay. The DiscoverX KinomeScreen assay is a site-directed competition binding assay which measures the binding affinity of a compound to a kinase, by use of a solid supported control compound which can bind or capture the kinases in solution. In the absence of a kinase-inhibitor test compound, all of the kinase will bind to the solid support. If a kinase-inhibitor test compound is added to the assay mix, the amount of kinase binding to the solid support will be reduced, the extent of reduction being dependent on the potency of the test compound as a kinase inhibitor. […] For most assays, kinase-tagged T7 phage strains were grown in parallel in 24-well blocks in an E. coli host derived from the BL21 strain. E. coli were grown to log-phase and infected with T7 phage from a frozen stock (multiplicity of infection=0.4) and incubated with shaking at 32° C. until lysis (90-150 minutes). The lysates were centrifuged (6,000×g) and filtered (0.2 μm) to remove cell debris. The remaining kinases were produced in HEK-293 cells and subsequently tagged with DNA for qPCR detection. Streptavidin-coated magnetic beads were treated with biotinylated small molecule ligands for 30 minutes at room temperature to generate affinity resins for kinase assays. The liganded beads were blocked with excess biotin and washed with blocking buffer (SeaBlock (Pierce), 1% BSA, 0.05% Tween 20, 1 mM DTT) to remove unbound ligand and to reduce non-specific phage binding. […] Test compounds were prepared as 40× stocks in 100% DMSO and directly diluted into the assay. All reactions were performed in polypropylene 384-well plates in a final volume of 0.02 ml. […] The beads were then re-suspended in elution buffer (1×PBS, 0.05% Tween 20, 0.5 μM non-biotinylated affinity ligand) and incubated at room temperature with shaking for 30 minutes. The kinase concentration in the eluates was measured by qPCR. Compounds that bind the kinase active site and directly (sterically) or indirectly (allosterically) prevent kinase binding to the immobilized ligand, will reduce the amount of kinase captured on the solid support. […] The strength of binding of the test molecule to the kinase can be expressed as the percent control (% Ctrl) The compound(s) were screened at 3000 nM concentration, and results for primary screen binding interactions are reported as ‘% Ctrl’, where lower numbers indicate stronger hits in the matrix on the following page(s). [formula] • negative control=DMSO (100% Ctrl) • positive control=control compound (0% Ctrl)

[2] = biological target: T2, panel of ninety-seven kinases (Homo sapiens, UniProt P36896); experiment: as above; details: ACVR1B; read-out: % Ctrl @ 3 μM
T2 construct: purchased DiscoverX; host or cells: T7 phage in E. coli (BL21-derived) for most kinases; HEK-293 for the rest
Description: as §1

[3] = biological target: T3, panel of ninety-seven kinases (Homo sapiens, UniProt Q00526); experiment: as above; details: CDK3; read-out: % Ctrl @ 3 μM
T3 construct: purchased DiscoverX; host or cells: T7 phage in E. coli (BL21-derived) for most kinases; HEK-293 for the rest
Description: as §1

[4] = biological target: T4, panel of ninety-seven kinases (Homo sapiens, UniProt P31749); experiment: as above; details: AKT1; read-out: % Ctrl @ 3 μM
T4 construct: purchased DiscoverX; host or cells: T7 phage in E. coli (BL21-derived) for most kinases; HEK-293 for the rest
Description: as §1

[5] = tested on: panel of ninety-seven kinases; experiment: as above
Description: as §1

[6] = biological target: T5, panel of ninety-seven kinases (Homo sapiens, UniProt P09619); experiment: as above; details: PDGFRB; read-out: % Ctrl @ 3 μM
T5 construct: purchased DiscoverX; host or cells: T7 phage in E. coli (BL21-derived) for most kinases; HEK-293 for the rest
Description: as §1

[7] = biological target: T6, panel of ninety-seven kinases (Homo sapiens, UniProt Q9UM73); experiment: as above; details: ALK; read-out: % Ctrl @ 3 μM
T6 construct: purchased DiscoverX; host or cells: T7 phage in E. coli (BL21-derived) for most kinases; HEK-293 for the rest
Description: as §1

[8] = biological target: T7, panel of ninety-seven kinases (Homo sapiens, UniProt P12931); experiment: as above; details: SRC; read-out: % Ctrl @ 3 μM
T7 construct: purchased DiscoverX; host or cells: T7 phage in E. coli (BL21-derived) for most kinases; HEK-293 for the rest
Description: as §1

[9] = biological target: T8, panel of ninety-seven kinases (Homo sapiens, UniProt P06213); experiment: as above; details: INSR; read-out: % Ctrl @ 3 μM
T8 construct: purchased DiscoverX; host or cells: T7 phage in E. coli (BL21-derived) for most kinases; HEK-293 for the rest
Description: as §1

[10] = biological target: T9, panel of ninety-seven kinases (Homo sapiens, UniProt P48730); experiment: as above; details: CSNK1D; read-out: % Ctrl @ 3 μM
T9 construct: purchased DiscoverX; host or cells: T7 phage in E. coli (BL21-derived) for most kinases; HEK-293 for the rest
Description: as §1

[11] = biological target: T10, panel of ninety-seven kinases (Homo sapiens, UniProt Q05397); experiment: as above; details: PTK2; read-out: % Ctrl @ 3 μM
T10 construct: purchased DiscoverX; host or cells: T7 phage in E. coli (BL21-derived) for most kinases; HEK-293 for the rest
Description: as §1

[12] = biological target: T11, panel of ninety-seven kinases (Homo sapiens, UniProt P45983); experiment: as above; details: MAPK8; read-out: % Ctrl @ 3 μM
T11 construct: purchased DiscoverX; host or cells: T7 phage in E. coli (BL21-derived) for most kinases; HEK-293 for the rest
Description: as §1

U87MG cells = experiment: Mitotic phenotype study in U87MG cells; assay type: cell-based, human; details: 0.03 μM, listed as A-2
Description: Distinct mitotic phenotypes are induced following inhibition of PLK1 and PLK4 in cells. […] Centriole assembly is controlled by PLK4, with inhibitors inducing a multipolar spindle phenotype due to centrosome defects which results in abnormal cyokinesis (Wong et al., 2015. Science 348(6239); 1155-1160). Cells were plated at 10 000/well in 96-well plates and incubated overnight. The following day atropisomer A-2 stocks in DMSO were diluted in medium then added to cells with a maximum final DMSO concentration on cells of 0.2%. Cells were incubated with the compound for 24 hours then fixed in 3.7% formaldehyde. Cells were permeabilised with 0.1% Triton X-100 then incubated with anti-phospho-histone H3 (Ser10) antibody (Abcam). The cells were washed with PBS then incubated with AlexaFluor 488 labelled goat anti-rabbit IgG (Invitrogen) in the presence of 4 ug/mL Hoechst 33342 (Invitrogen). Cells were washed in PBS then imaged on an Arrayscan VTi HCS instrument using the Target Activation V4 Bioapplication. A user-defined threshold was applied to identify mitotic cells based on the intensity of phospho-histone H3 staining. In a separate study, following the above protocol and using single compound concentrations of 0.03 μM for each of atropisomer A-1 and atropisomer A-2, the frequency of observed mitotic phenotypes in U87MG cells was manually assessed and classified into the following phenotypes: non-congressed chromosomes, multipolar spindles/abnormal cytokinesis, monopolar spindles, normal prometaphase, normal metaphase for each of A-1 and A-2.

T7 sequence (P12931 whole entry): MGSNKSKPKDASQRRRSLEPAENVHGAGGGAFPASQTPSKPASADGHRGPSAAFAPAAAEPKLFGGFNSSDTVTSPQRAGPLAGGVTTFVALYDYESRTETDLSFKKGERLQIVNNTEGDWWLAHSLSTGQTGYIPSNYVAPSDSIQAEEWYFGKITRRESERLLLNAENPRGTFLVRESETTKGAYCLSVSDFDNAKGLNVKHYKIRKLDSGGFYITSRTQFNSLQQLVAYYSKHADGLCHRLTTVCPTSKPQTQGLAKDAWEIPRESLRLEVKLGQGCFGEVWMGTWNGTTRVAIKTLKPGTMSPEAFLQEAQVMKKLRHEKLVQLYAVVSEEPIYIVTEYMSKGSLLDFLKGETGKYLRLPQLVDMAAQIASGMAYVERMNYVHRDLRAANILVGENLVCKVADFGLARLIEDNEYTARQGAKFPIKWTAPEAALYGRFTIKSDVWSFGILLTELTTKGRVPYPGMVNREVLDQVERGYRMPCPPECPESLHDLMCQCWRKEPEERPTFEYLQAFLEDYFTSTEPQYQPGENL
T4 sequence (P31749 whole entry): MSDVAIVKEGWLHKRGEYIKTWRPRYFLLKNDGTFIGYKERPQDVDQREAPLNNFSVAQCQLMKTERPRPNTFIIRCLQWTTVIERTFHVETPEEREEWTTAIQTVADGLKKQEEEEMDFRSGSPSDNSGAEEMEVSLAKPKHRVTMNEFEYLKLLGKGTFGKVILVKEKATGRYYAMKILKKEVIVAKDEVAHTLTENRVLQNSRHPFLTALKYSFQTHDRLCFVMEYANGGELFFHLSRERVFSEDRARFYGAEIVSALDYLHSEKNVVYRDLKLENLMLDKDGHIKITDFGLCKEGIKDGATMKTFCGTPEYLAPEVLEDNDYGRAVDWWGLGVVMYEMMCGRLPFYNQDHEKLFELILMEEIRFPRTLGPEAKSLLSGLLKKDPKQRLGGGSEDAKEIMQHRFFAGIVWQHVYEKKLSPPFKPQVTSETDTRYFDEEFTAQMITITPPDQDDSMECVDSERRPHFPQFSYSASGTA
T5 sequence (P09619 33-1106): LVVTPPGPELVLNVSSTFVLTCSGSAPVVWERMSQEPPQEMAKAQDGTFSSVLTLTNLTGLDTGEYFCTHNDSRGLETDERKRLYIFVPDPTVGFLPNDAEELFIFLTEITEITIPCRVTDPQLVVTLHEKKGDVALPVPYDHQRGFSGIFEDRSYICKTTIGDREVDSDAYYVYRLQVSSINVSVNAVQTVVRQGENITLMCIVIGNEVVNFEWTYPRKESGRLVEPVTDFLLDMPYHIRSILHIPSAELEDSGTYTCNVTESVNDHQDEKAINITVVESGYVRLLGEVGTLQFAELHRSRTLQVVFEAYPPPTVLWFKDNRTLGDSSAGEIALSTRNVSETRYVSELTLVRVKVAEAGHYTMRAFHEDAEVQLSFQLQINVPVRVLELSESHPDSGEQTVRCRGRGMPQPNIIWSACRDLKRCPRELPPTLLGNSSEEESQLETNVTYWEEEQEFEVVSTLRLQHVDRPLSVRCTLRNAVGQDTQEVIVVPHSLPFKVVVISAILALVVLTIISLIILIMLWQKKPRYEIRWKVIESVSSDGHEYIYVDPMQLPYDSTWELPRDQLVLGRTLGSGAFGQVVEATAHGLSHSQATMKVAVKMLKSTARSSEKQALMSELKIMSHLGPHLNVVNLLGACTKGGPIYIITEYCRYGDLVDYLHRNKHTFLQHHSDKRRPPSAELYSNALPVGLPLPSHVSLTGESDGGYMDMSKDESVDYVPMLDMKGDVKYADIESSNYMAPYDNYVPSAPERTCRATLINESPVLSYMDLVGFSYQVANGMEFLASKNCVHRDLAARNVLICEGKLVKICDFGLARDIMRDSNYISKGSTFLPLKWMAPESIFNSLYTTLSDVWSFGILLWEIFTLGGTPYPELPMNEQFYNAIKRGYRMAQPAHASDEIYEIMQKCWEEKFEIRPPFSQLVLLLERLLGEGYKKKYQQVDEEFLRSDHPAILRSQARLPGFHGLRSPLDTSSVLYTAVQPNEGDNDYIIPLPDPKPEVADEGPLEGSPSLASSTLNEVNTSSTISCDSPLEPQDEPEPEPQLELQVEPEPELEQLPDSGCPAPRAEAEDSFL
T3 sequence (Q00526 whole entry): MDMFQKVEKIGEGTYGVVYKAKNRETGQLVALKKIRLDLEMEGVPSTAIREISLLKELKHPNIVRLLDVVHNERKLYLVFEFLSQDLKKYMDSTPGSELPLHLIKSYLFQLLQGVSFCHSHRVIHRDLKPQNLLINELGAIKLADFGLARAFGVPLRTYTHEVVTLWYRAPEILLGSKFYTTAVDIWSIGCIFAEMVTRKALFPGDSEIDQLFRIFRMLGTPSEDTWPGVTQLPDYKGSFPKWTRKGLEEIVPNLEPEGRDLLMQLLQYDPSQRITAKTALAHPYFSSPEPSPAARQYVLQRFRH
T6 sequence (Q9UM73 19-1620): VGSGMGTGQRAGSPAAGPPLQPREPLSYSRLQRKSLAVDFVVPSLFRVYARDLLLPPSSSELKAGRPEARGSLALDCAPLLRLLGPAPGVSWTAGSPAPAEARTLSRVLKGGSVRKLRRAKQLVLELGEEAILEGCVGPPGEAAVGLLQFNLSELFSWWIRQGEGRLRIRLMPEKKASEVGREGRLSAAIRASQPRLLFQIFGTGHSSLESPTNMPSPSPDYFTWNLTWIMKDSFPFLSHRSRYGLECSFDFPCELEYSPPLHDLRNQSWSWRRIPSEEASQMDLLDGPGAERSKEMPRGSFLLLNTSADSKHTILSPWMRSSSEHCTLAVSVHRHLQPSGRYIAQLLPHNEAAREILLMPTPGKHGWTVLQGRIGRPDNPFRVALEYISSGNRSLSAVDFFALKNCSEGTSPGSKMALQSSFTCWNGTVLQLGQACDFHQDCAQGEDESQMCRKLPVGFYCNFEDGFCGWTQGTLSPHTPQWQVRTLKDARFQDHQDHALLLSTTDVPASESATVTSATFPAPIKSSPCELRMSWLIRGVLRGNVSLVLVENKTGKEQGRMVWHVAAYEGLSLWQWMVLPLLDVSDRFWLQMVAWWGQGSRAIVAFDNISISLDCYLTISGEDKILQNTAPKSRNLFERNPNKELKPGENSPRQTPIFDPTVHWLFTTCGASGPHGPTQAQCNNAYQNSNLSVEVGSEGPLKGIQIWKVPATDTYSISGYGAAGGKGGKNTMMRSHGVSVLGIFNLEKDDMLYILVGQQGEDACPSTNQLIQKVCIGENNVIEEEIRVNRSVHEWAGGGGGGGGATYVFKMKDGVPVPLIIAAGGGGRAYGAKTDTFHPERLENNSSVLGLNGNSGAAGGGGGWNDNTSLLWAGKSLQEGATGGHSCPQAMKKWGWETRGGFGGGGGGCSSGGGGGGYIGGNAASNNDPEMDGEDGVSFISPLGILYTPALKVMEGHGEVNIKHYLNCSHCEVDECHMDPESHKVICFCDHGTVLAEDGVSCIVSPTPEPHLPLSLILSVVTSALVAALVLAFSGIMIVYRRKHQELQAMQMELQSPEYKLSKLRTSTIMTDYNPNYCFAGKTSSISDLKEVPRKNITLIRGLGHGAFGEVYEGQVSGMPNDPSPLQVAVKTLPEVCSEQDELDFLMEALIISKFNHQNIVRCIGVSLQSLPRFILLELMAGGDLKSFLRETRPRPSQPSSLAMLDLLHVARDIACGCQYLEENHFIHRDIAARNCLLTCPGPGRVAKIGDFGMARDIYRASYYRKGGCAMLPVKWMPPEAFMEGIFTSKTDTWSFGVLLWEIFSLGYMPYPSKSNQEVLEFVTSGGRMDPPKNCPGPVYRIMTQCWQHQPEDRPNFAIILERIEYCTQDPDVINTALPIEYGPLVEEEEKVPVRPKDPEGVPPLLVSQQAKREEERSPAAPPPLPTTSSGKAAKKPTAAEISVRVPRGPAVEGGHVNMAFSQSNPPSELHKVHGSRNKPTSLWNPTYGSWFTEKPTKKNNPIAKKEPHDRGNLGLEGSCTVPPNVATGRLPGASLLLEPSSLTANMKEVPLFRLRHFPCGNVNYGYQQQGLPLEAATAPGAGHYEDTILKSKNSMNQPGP
T2 sequence (P36896 24-505): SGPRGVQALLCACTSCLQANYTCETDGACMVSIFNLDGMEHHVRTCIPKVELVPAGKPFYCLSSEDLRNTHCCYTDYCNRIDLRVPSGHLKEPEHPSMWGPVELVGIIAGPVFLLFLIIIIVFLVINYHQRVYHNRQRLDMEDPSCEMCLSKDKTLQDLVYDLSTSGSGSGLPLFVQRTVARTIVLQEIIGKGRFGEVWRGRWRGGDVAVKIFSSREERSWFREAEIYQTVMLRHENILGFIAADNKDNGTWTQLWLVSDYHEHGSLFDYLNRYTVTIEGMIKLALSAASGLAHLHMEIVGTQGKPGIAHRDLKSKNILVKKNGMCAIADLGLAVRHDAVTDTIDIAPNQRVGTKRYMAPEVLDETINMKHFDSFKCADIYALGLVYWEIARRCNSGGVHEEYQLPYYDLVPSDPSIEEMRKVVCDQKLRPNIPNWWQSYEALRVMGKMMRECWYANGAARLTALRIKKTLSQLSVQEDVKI
T11 sequence (P45983 whole entry): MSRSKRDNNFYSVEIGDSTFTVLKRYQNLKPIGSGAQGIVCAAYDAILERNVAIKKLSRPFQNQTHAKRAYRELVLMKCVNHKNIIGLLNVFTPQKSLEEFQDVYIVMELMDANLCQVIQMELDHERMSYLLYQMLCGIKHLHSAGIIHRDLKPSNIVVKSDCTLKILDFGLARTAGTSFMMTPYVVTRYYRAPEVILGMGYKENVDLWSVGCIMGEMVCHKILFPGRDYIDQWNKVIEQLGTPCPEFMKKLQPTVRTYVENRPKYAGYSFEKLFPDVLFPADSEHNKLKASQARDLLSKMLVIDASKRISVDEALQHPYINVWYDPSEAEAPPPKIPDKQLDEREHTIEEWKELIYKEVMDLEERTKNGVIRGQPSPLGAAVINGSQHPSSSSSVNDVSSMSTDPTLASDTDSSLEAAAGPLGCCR

percent of control kinase binding to immobilized ligand at 3 µM [1]: 92% | percent of control kinase binding to immobilized ligand at 3 µM [2]: 96% | percent of control kinase binding to immobilized ligand at 3 µM [3]: 100% | percent of control kinase binding to immobilized ligand at 3 µM [4]: 98% | % Ctrl @ 3 μM ([5]; EGFR (variants not told apart)): 100% | % Ctrl @ 3 μM ([5]; KIT (three lines, variants not told apart)): 100% | binding activity against panel kinases (in words) ([5]; ninety-seven kinases, 3 μM): poor or non-existent binding activity | percent of control kinase binding to immobilized ligand at 3 µM [6]: 100% | percent of control kinase binding to immobilized ligand at 3 µM [7]: 89% | percent of control kinase binding to immobilized ligand at 3 µM [8]: 100% | percent of control kinase binding to immobilized ligand at 3 µM [9]: 100% | percent of control kinase binding to immobilized ligand at 3 µM [10]: 91% | percent of control kinase binding to immobilized ligand at 3 µM [11]: 98% | percent of control kinase binding to immobilized ligand at 3 µM [12]: 77%
SMILES: CN(C)CCNC(=O)c1ccc(-c2ccc(-c3ccc(Cl)cc3)n2-c2ccccc2C(F)(F)F)cc1 (single isomer, unassigned) [Atropisomer A-2, 4-[5-(4-chlorophenyl)-1-[2-(trifluoromethyl)phenyl]pyrrol-2-yl]-N-[2-(dimethylamino)ethyl]benzamide]
TGI (HCT116 xenograft tumours): 60% | cells with abnormal cytokinesis (U87MG cells): 70% | cells with non-congressed chromosomes (U87MG cells): 13% | cells with normal mitotic phenotype (U87MG cells): 17%
